Counter-ions that a name gives are not always drawn.

This note sets out measurements from patent publication US9180136B2, “Identification and treatment of cancer subsets” (The Translational Genomics Research Institute, priority 2010, dated 2015).

The subject of experiment [1] is transformed normal human embryonic kidney cell line (HEK-293). Nature of the experiment: CellTiter-Glo luminescent cell viability after IP6 treatment. It counts as cell-based. The settings on record: HEK-293, 0.31-5 mM IP6, 72 hours, FIG. 18. The protocol:
(§1) The human head and neck squamous cell carcinoma lines evaluated were: SCC-4, SCC-9 and SCC-15. The colorectal cancer cell line HT-29 and the kidney embryonic line HEK293, purchased from the American Type Culture Collection (ATCC, Manassas, Va.), were used for comparison. Squamous cell lines were maintained in Dulbecco's Modified Eagle Medium: Nutrient Mixture F12 (DMEM/F12), with 10% Fetal bovine serum (FBS), 2 mM GlutaMAX, 25 mM Hepes buffer, 100 U/ml penicillin and 100 μg/ml streptomycin. HEK293 and HT-29 were cultured in DMEM and RPMI-1640 medium respectively, with the supplements mentioned above. All media and cell culture supplements were purchased from Invitrogen Corporation (Carlsbad, Calif.). Sub-confluent, rapidly growing cells were plated at a density of 600 cells/20 μL/well in a clear bottom 384-well plate with opaque walls, suitable for luminescent measurements. The next day, IP6 (Inositol hexakisphosphate, phytic acid, dipotassium salt, Sigma-Aldrich, St Louis, Mo.) solutions in culture medium, corresponding to the following concentrations: 0.3125, 0.625, 1.25, 2.5 and 5 mM, were prepared, and were stored at 4° C. for 4-6 h. […] The plate was incubated at room temperature for 10 minutes, and the luminescence was read on a Perkin Elmer Victor^3 microplate reader. Data from each set of four replicates was averaged and the standard deviation was calculated. […]

The test system of experiment [2] is colorectal adenocarcinoma (HT-29). Described as above. It is filed as cell-based. As to conditions: HT-29, 0.31-5 mM IP6, 72 hours, FIG. 18. Here is the method:
as §1

In another experiment the test system is SCC-4 cells. In words: TUNEL apoptosis staining of SCC-4 cells treated with IP6. It counts as cell-based, human. As to conditions: SCC-4 cells treated with IP6 vs untreated, FIG. 8. An excerpt: FIG. 8 depicts increased apoptosis in a squamous cell carcinoma cell line treated with IP6 (right panel B) relative to the same line without treatment (left panel A), and the DNA blue fluorescence was produced by DAPI probe. Apoptotic nuclei red fluorescence was produced through TUNEL assay; IP6 is an inositol metabolite that is dependant upon INPP5A activity for its synthesis (See FIG. 7). Addition of exogenous IP6 inhibits the cell proliferation brought about by INPP5A loss and drives cells towards a differentiated phenotype. […] Increased TUNEL staining (red) is seen in the IP6 treated cells.

In experiment [3] the test system is normal human keratinocytes. In words: TUNEL apoptosis staining of normal human keratinocytes at different confluence treated with IP6. It counts as cell-based. As to conditions: for apoptosis (TUNEL staining): 2 mM IP6 for 24 hours. The protocol: FIG. 12 depicts the effect of IP6 treatment on confluent normal human keratinocytes. […] The DNA blue fluorescence was produced by DAPI probe. Apoptotic nuclei red fluorescence was produced through TUNEL assay; FIG. 13 depicts the effect of IP6 treatment on 70% confluent keratinocytes. […] The DNA blue fluorescence was produced by DAPI probe. […] Normal human keratinocytes were harvested at various stages of confluency. Cell cultures were assessed by morphological evaluation of the cell and segregated into distinct culture confluence intervals at or near the plateau phase of growth, generally: lower confluence (L), 70-80%; medium confluence (M), 80-90%, and higher confluence (H), >95%. INPP5A mRNA expression at selected culture confluence levels was evaluated by qPCR.

The subject of another experiment is SCC-15. In words: CellTiter-Glo luminescent cell viability after IP6 treatment. It counts as cell-based, human. As to conditions: SCC-15, 0.31-5 mM IP6, 72 hours, FIG. 18. Here is the method:
(§2) The human head and neck squamous cell carcinoma lines evaluated were: SCC-4, SCC-9 and SCC-15. The colorectal cancer cell line HT-29 and the kidney embryonic line HEK293, purchased from the American Type Culture Collection (ATCC, Manassas, Va.), were used for comparison. Squamous cell lines were maintained in Dulbecco's Modified Eagle Medium: Nutrient Mixture F12 (DMEM/F12), with 10% Fetal bovine serum (FBS), 2 mM GlutaMAX, 25 mM Hepes buffer, 100 U/ml penicillin and 100 μg/ml streptomycin. HEK293 and HT-29 were cultured in DMEM and RPMI-1640 medium respectively, with the supplements mentioned above. All media and cell culture supplements were purchased from Invitrogen Corporation (Carlsbad, Calif.). Sub-confluent, rapidly growing cells were plated at a density of 600 cells/20 μL/well in a clear bottom 384-well plate with opaque walls, suitable for luminescent measurements. The next day, IP6 (Inositol hexakisphosphate, phytic acid, dipotassium salt, Sigma-Aldrich, St Louis, Mo.) solutions in culture medium, corresponding to the following concentrations: 0.3125, 0.625, 1.25, 2.5 and 5 mM, were prepared, and were stored at 4° C. for 4-6 h. Shortly before treatment, IP6 solutions were centrifuged to remove any precipitates that IP6 forms with calcium chloride. Four wells were treated for each condition. […] (San Luis Obispo, Calif.), following the manufacturer's instruction. Briefly, the assay buffer and substrate were equilibrated at room temperature, and mixed thoroughly. Without removing medium from wells, the assay reagent was added into each well (1:1, volume:volume of medium per well) and the content was mixed for 2 minutes on an orbital shaker to induce cell lysis. The plate was incubated at room temperature for 10 minutes, and the luminescence was read on a Perkin Elmer Victor^3 microplate reader. Data from each set of four replicates was averaged and the standard deviation was calculated. […]

The subject of another experiment is SCC-4. The description is as above. As to conditions: SCC-4, 0.31-5 mM IP6, 72 hours, FIG. 18. It counts as cell-based, human. Here is the method: as §2
In a further experiment the test system is SCC-9. The experiment is described as above. It is filed as cell-based, human. The settings on record: SCC-9, 0.31-5 mM IP6, 72 hours, FIG. 18. The protocol: as §2

For the molecule `O=P(O)(O)O[C@H]1[C@H](OP(=O)(O)O)[C@@H](OP(=O)(O)O)[C@H](OP(=O)(O)O)[C@@H](OP(=O)(O)O)[C@H]1OP(=O)(O)O` [IP6, Inositol hexakisphosphate, phytic acid, dipotassium salt], the “proportion of cells present after treatment relative to untreated cells” value in experiment [1] is “dose-dependent reduction in number”; in experiment [2] it was “dose-dependent reduction in number”; with SCC-15, “dose-dependent reduction in number, which is much greater for the SCC cells”; with SCC-4 it was “dose-dependent reduction in number, which is much greater for the SCC cells”; in the experiment with SCC-9 it was “dose-dependent reduction in number, which is much greater for the SCC cells”. For the same molecule, the “cell death by apoptosis (TUNEL staining)” value in the experiment on SCC-4 cells is “significant cell death by apoptosis”. The “apoptosis (TUNEL staining)” value in experiment [3] (70% confluent keratinocytes, FIG. 13) is on record as “Greater apoptosis relative to background”; in experiment [3] (100% confluent keratinocytes, FIG. 12), “reduced apoptosis”. The “selectivity for cells with reduced INPP5A expression” value in experiment [3] (normal human keratinocytes at various stages of confluency) is given as “selective for cells with reduced INPP5A expression”.
